{"source": "patent US5036072A", "about": "“Antiviral agent” (Ishihara Sangyo Kaisha Ltd., priority 1989, dated 1991)", "key": {"[1]": {"system": "reverse transcriptase derived from bird's myeloblastosis virus", "test": "inhibition of the reverse transcriptase activities", "type": "biochemical", "settings": "37° C. for 60 minutes, [3H]-TTP incorporation", "protocol": "Now, the effects of the antiviral agent of the present invention for inhibition of the reverse transcriptase activities will be shown.\nThe test solution comprised magnesium chloride (5 mM), DTT (5 mM), sodium chloride (60 mM), [^3 H]-TTP (0.2 mM), poly(λA) (10 μg/ml), Oligo (dT) (0.04 U/ml), reverse transcriptase derived from bird's myeloblastosis virus (3 U/ml) and Tris hydrochloric acid (pH 8.0). Compound 3 was dissolved in cyclodextrin to obtain a solution having a concentration of 5 mg/ml, which was then diluted with water to a predetermined concentration for use.\nThen, 50 μl of the test solution and 50 μl of the sample solution were mixed, and the mixture was incubated at 37° C. for 60 minutes. Then, 50 μl of the incubated solution was sampled and soaked into a DEA filter paper. Then, this filter paper was washed with a 5% sodium monohydrogen phosphate solution and then with water and ethanol, followed by drying. The radioactivity contained in the captured fraction was measured by means of a scintillation counter. Then, the inhibition rate (%) of the sample Compound 3 was calculated from the radioactivity of the test sample group and that of the control group."}, "[2]": {"system": "helpes simplex virus (1-type, KOS strain)", "test": "plaque-reduction evaluation method in Verocells", "type": "cell-based", "settings": "drug added one hour after infection, counted three days later", "protocol": "The antiviral activities were evaluated by a plaque-reduction evaluation method. Verocells were inoculated to a plastic Petri dish and then proliferated until they formed a monolayer. To each Petri dish, a predetermined number of plaque-forming units (about 100 to 500) of helpes simplex virus (1-type, KOS strain) were infected. Compound 3 was dissolved in 2% of bovine fetus serum inactivated by heating and adjusted to a predetermined concentration. One hour after the infection, the drug solution was added to the cultivation Petri dish (8 ml/Petri dish). Three days later, the cultivation Petri dish was fixed by formalin and dyed with Crystal Violet, whereupon the number of plaques was counted."}}}
{"smiles": "O=C(NC(=O)c1ccccc1[N+](=O)[O-])Nc1ccc(Oc2ncc(Br)cn2)c(Cl)c1", "note": "[Compound 3]", "values": [{"measurement": "Inhibition rate (%)", "setting": "[1]; 1.25 μg/ml", "value": 6, "unit": "%"}, {"measurement": "Inhibition rate (%)", "setting": "[1]; 2.5 μg/ml", "value": 11, "unit": "%"}, {"measurement": "Inhibition rate (%)", "setting": "[1]; 5 μg/ml", "value": 34, "unit": "%"}, {"measurement": "Inhibition rate (%)", "setting": "[1]; 10 μg/ml", "value": 57, "unit": "%"}, {"measurement": "Number of plaques", "setting": "[2]; 1 μg/ml", "value": 264.5}, {"measurement": "inhibition at 1 µg/mL", "setting": "[2]; 1 μg/ml", "value": 45.1, "unit": "%"}, {"measurement": "Number of plaques", "setting": "[2]; 2.5 μg/ml", "value": 122.0}, {"measurement": "inhibition at 2.5 µg/mL", "setting": "[2]; 2.5 μg/ml", "value": 74.7, "unit": "%"}, {"measurement": "Number of plaques", "setting": "[2]; 5 μg/ml", "value": 27.5}, {"measurement": "inhibition at 5 µg/mL", "setting": "[2]; 5 μg/ml", "value": 94.3, "unit": "%"}]}
